# Laboratory results as given in ChEMBL document CHEMBL6074686 (Eur J Med Chem, 2025).
# Calls of active or inactive are those of the source. No cut-off for these calls is given here.
# Tests used:
# [1] = tested on: SK-OV-3; assay: Inhibition of colony formation in human SK-OV-3 cells at 2.5 nM incubated for 12 days by crystal violet staining based assay relative to control; type: functional; conditions: SK-OV-3, 288 h, time 12 day
# [2] = tested on: MCF7; assay: Inhibition of colony formation in human MCF7 cells incubated for 72 hrs by crystal violet staining based assay; type: functional, cell-based; conditions: dose 3.125-50 nM
# [3] = tested on: MCF7; assay: Inhibition of colony formation in human MCF7 cells at 25 nM incubated for 72 hrs by crystal violet staining based assay relative to control; type: functional
# [4] = tested on: MCF7; assay: Inhibition of colony formation in human MCF7 cells at 50 nM incubated for 72 hrs by crystal violet staining based assay relative to control; type: functional
# [5] = tested on: SK-OV-3; assay: Induction of cell cycle arrest in human SK-OV-3 cells assessed as increase in G2/M phase cells at 5 nM incubated for 24 hrs PI staining based flow cytometric analysis (reference value: 24.6 +/- 2.0%); type: functional
# [6] = tested on: SK-OV-3; assay: Induction of cell cycle arrest in human SK-OV-3 cells assessed as increase in G2/M phase cells at 40 nM incubated for 24 hrs by PI staining based flow cytometric analysis (reference value: 24.6 +/- 2.0%); type: functional
# [7] = tested on: SK-OV-3; assay: Induction of cell cycle arrest in human SK-OV-3 cells assessed as upregulation of Cyclin-B1 expression at 25 to 50 nM incubated for 24 hrs by Western blotting analysis; type: functional, cell-based; conditions: dose 25-50 nM
# [8] = tested on: SK-OV-3; assay: Induction of cell cycle arrest in human SK-OV-3 cells assessed as upregulation of Cdc-2 expression at 25 to 50 nM incubated for 24 hrs by Western blotting analysis; type: functional, cell-based; conditions: dose 25-50 nM
# [9] = tested on: SK-OV-3; assay: Induction of cell cycle arrest in human SK-OV-3 cells assessed as downregulation of Cdc-2 expression at 100 nM incubated for 24 hrs by Western blotting analysis; type: functional, cell-based
# [10] = tested on: SK-OV-3; assay: Induction of cell cycle arrest in human SK-OV-3 cells assessed as downregulation of Cdc-25c expression incubated for 24 hrs by Western blotting analysis; type: functional, cell-based; conditions: dose 25-100 nM
# [11] = tested on: SK-OV-3; assay: Induction of apoptosis in human SK-OV-3 cells assessed as Bax expression at 25 to 50 nM incubated for 24 hrs by Western blotting analysis; type: functional, cell-based; conditions: dose 25-50 nM
# [12] = tested on: SK-OV-3; assay: Induction of apoptosis in human SK-OV-3 cells assessed as upregulation of Bcl-2 expression at 100 nM incubated for 24 hrs by Western blotting analysis; type: functional, cell-based
# [13] = tested on: MCF7; assay: Induction of apoptosis in human MCF7 cells assessed as downregulation of Bcl-2 expression incubated for 24 hrs by Western blotting analysis; type: functional, cell-based
# [14] = molecular target: T1, Tubulin (Homo sapiens) (UniProt P68371+Q9H4B7+P0DPH7+P68366+Q13509+Q71U36+P04350+Q3ZCM7+P07437+P68363+Q9BQE3+Q6PEY2+Q13885+Q9BVA1+Q9BUF5); assay: Inhibition of tubulin polymerization (unknown origin) assessed as reduction in optical density at 340 nm at 20 uM relative to control; type: protein-complex assay
# [15] = molecular target: T1, Tubulin (Homo sapiens); assay: Inhibition of tubulin polymerization in human SK-OV-3 cells assessed as destruction of microtubule network at 20 nM incubated for 18 hrs by Alexa Fluor 488 staining based confocal immunofluorescent microscopic analysis; type: cell-based
# [16] = tested on: SK-OV-3; assay: Inhibition of cell migration in human SK-OV-3 cells assessed as wound closure ratio at 12.5 nM incubated for 24 hrs by wound healing assay (reference value: 100%); type: functional; design: scale not given: the % may be the effect or the level left
# [17] = tested on: SK-OV-3; assay: Inhibition of cell migration in human SK-OV-3 cells assessed as decrease in cell density incubated for 24 hrs by wound healing assay; type: functional, cell-based; conditions: dose 3.125-50 nM
# [18] = tested on: SK-OV-3; assay: Inhibition of cell migration in human SK-OV-3 cells assessed as decrease in cell density at 25 to 50 nM incubated for 24 hrs by wound healing assay; type: functional, cell-based; conditions: dose 25-50 nM
# [19] = tested on: MCF7; assay: Inhibition of cell migration in human MCF7 cells assessed as wound closure at 2.5 nM incubated for 24 hrs by wound healing assay (reference value: 44.5 +/- 8.8%); type: functional; design: scale not given: the % may be the effect or the level left
# [20] = tested on: MCF7; assay: Inhibition of cell migration in human MCF7 cells assessed as increase in cell density at 0 to 10 nM incubated for 24 hrs by wound healing assay; type: functional, cell-based; conditions: dose 0-10 nM
# [21] = tested on: MCF7; assay: Inhibition of cell migration in human MCF7 cells assessed as increase in cell density at 20 nM incubated for 24 hrs by wound healing assay; type: functional, cell-based
# [22] = tested on: SK-OV-3; assay: Inhibition of cell migration in human SK-OV-3 cells incubated for 24 hrs by Transwell assay; type: functional, cell-based; conditions: dose 10-20 nM
# [23] = tested on: SK-OV-3; assay: Inhibition of cell migration in human SK-OV-3 cells assessed as area of migrated cells at 1.25 nM incubated for 24 hrs by crystal violet staining based inverted microscopic analysis (reference value: 30.1 +/- 1.3 mm^3); type: functional
# [24] = tested on: SK-OV-3; assay: Inhibition of cell migration in human SK-OV-3 cells assessed as area of migrated cells at 10 nM incubated for 24 hrs by crystal violet staining based inverted microscopic analysis (reference value: 30.1 +/- 1.3 mm^3); type: functional
# [25] = tested on: SK-OV-3; assay: Inhibition of cell migration in human SK-OV-3 cells assessed as ratio of migrated cells at 5 nM incubated for 24 hrs by Transwell assay (reference value: 100 %); type: functional; design: scale not given: the % may be the effect or the level left
# [26] = tested on: SK-OV-3; assay: Inhibition of cell migration in human SK-OV-3 cells assessed as ratio of migrated cells at 10 nM incubated for 24 hrs by Transwell assay (reference value: 100 %); type: functional; design: scale not given: the % may be the effect or the level left
# [27] = tested on: MCF7; assay: Inhibition of cell migration in human MCF7 cells assessed as area of migrated cells at 6.25 nM incubated for 24 hrs by crystal violet staining based inverted microscopic analysis (reference value: 18.5 +/- 0.3 mm^3); type: functional
# [28] = tested on: MCF7; assay: Inhibition of cell migration in human MCF7 cells assessed as area of migrated cells at 25 nM incubated for 24 hrs by crystal violet staining based inverted microscopic analysis (reference value: 18.5 +/- 0.3 mm^3); type: functional
# [29] = Toxicity in female BALB/c nude mouse xenografted with human SK-OV-3 cells assessed as drug tolerance reduction in food intake at 30 mg/kg, administered via tail vein for 5 days and measured daily; type: organism-based; conditions: in vivo, iv, 120 h, time 5 day
# [30] = Toxicity in female BALB/c nude mouse xenografted with human SK-OV-3 cells assessed as drug tolerance by measuring lethargy at 30 mg/kg, administered via tail vein for 5 days and measured daily; type: organism-based; conditions: in vivo, iv, 120 h, time 5 day
# [31] = Toxicity in female BALB/c nude mouse xenografted with human SK-OV-3 cells assessed as drug tolerance by measuring body weight loss at 15 mg/kg, administered via tail vein for 5 days and measured daily; type: organism-based; conditions: in vivo, iv, 120 h, time 5 day
# [32] = tested on: SK-OV-3; assay: Antitumor activity against human SK-OV-3 cells xenografted in female BALB/c nude mouse assessed as tumor growth inhibition at 10 mg/kg, […] via tail vein once every 2 to 3 days; type: functional; conditions: time 2-3 day, read-out: TGI
# [33] = tested on: SK-OV-3; assay: Antitumor activity against human SK-OV-3 cells xenografted in female BALB/c nude mouse assessed as tumor growth inhibition at 5 mg/kg, […] via tail vein once every 2 to 3 days; type: functional; conditions: time 2-3 day, read-out: TGI
# [34] = tested on: SK-OV-3; assay: Antitumor activity against human SK-OV-3 cells xenografted xenografted in female BALB/c nude mouse assessed as downregulation of Bcl-2 expression level in tumor at 5 to 10 mg/kg, […] via tail vein once every 2 to 3 days by immunohistochemistry analysis; type: functional, organism-based; conditions: dose 5-10 mg/kg, time 2-3 day
structure (smiles),measurement,setting,value
CNc1nc(N2CCCc3cc(OC)ccc32)c2cc(F)ccc2n1,inhibition at 0.0025 µM,[1],56.2%
same,inhibition,[2],Dose-dependent-effect
same,inhibition at 0.025 µM,[3],32.8%
same,inhibition at 0.05 µM,[4],42.2%
same,Activity,[5],29.6%
same,Activity,[6],94.5%
same,Activity,[7],inactive
same,Activity,[8],Active
same,Activity,[9],inactive
same,Activity,[10],Dose-dependent-effect
same,Activity,[11],inactive
same,Activity,[12],inactive
same,Activity,[13],Active
same,inhibition,[14],100%
same,inhibition,[15],Active
same,Activity,[16],65.8%
same,inhibition,[17],Dose-dependent-effect
same,inhibition,[18],Active
same,Activity,[19],44%
same,inhibition,[20],Active
same,inhibition,[21],Active; Increase In Cell Density Was Notably Slowed Down
same,inhibition,[22],Dose-dependent-effect
same,Activity,[23],21.7 mm3
same,Activity,[24],6.8 mm3
same,Activity,[25],48.8%
same,Activity,[26],22.7%
same,Activity,[27],16.4 mm3
same,Activity,[28],2.4 mm3
same,Activity,[29],Toxic
same,Activity,[30],Toxic
same,Activity,[31],Toxic
same,inhibition in vivo at 10 mg/kg,[32],46.2%
same,inhibition in vivo at 5 mg/kg,[33],34.1%
same,Activity,[34],Active
